Assay results reported in patent publication US12371438B2, “Ginkgolide B derivative and salt thereof, preparation method therefor and use thereof” (HUILING JINXIN (SHANGHAI) PHARMACEUTICAL TECHNOLOGY CO., LTD, priority 2019, dated 2025).
“Also recorded” adds a separate entry of the source. Where two headings read alike, the source gives them in different places.

Key:
[1] = system: platelet aggregation in SD rats; experiment: Anticoagulant activity in SD rats (ADP-induced maximum platelet aggregation rate after gavage); format: in vivo; conditions: for Average maximum platelet aggregation rate (%): 50 mg/kg by gavage once a day for 3 days, ADP inducer, PAGM within 5 min; for anti-aggregation activity on platelet aggregation in SD rats (in words): 50 mg/kg, n=10, compared with Ginkgolide B
Protocol: Experimental method: Rats were randomly divided into 10 rats in each group, and each group was given the corresponding test drug (50 mg/kg) by gavage after weighing, once a day for 3 days.
150 μL of PRP in each group was sucked and added to the 96-well plate (adjusted to zero by PPP), and ADP inducer was added, the absorbance value A1 was measured at the wavelength of 650 nm in the microplate reader, which was the absorbance value of each group at 0 min; the oscillation mode of the microplate reader was turned on, and the absorbance value A2 was detected again after 5 min, which was the absorbance value of each group at 5 min. Since the addition of ADP would cause platelet aggregation and change the light permeability, the maximum platelet aggregation rate (PAGM) within 5 min was measured according to this principle. Maximum platelet aggregation rate(PAGM)=(A1−A2)/A1×100

platelet aggregation = experiment: In vitro anti-platelet aggregation activity evaluation (PAF-induced, platelet-rich plasma); format: cell-based, New Zealand white rabbits; conditions: for inhibitory effect on platelet aggregation in vitro (in words): 1 μM, compared with Ginkgolide B; for activity at 1 µM: Oryctolagus cuniculus, Platelet, read-out: Platelet aggregation rate (%, 1 μM)
Protocol: Experimental method: New Zealand white rabbits were anesthetized with sodium pentobarbital (2%, 2 mL/kg), about 40 mL of blood was obtained by abdominal aortic puncture, and the supernatant was collected as platelet-rich serum (PRP) after centrifugation at 1000 rpm/min for 10 min, the remaining blood was centrifuged at 4000 rpm/min for 10 min, and the supernatant was collected as platelet-poor serum (PPP); blank control group: 100 μL PRP+100 μL normal saline; drug group: 100 μL PRP+100 μL 0.05% DMSO dissolved drug (Ginkgolide B was positive control group), and the final drug concentration was 1 μM.

[2] = system: acute cerebral ischemia in SD rats; experiment: Anti-acute cerebral ischemia activity (middle cerebral artery electrocoagulation, TTC staining); format: in vivo
Protocol: At this time, a relatively straight blood vessel with few branches can be seen through the dura mater, that is, the middle cerebral artery. […] The temporal muscle and skin were sutured in turn, and then the rat was administered by gavage (50 mg/kg). After the rats were awakened, they were put back into their cages and continued to be reared for 24 h.
The brain slices were stained in 1% TTC dye solution (incubated at 37° C. in the dark for about 5-10 min), the infarcted area of brain slices after staining was white, while the non-infarcted area was rose red; after staining was completed, the brain slices were moved to 10% formaldehyde solution and kept away from light for 24 hours, finally, a digital camera was used to take pictures, the areas of frontal and reverse infarcted areas and non-infarcted areas were measured by image analysis software (ImageJ, version: 1.4.3.67), and the ratio of infarcted areas in the total infarcted cerebral hemisphere was calculated.

[3] = 1 μM drug, PAF-induced, rabbit PRP, corrected to blank = 100, n=5
[4] = SD rats, 50 mg/kg by gavage after occlusion, 24 h, n=10
[5] = SD rats, 50 mg/kg, n=10, compared with model group / Ginkgolide B, 50 mg/kg
[6] = SD rats, 50 mg/kg by gavage after occlusion, 24 h, n=10, 50 mg/kg

Compound	Average maximum platelet aggregation rate (%) ([1]; n=10)	Platelet aggregation rate (%, 1 μM) (platelet aggregation; [3])	inhibitory effect on platelet aggregation in vitro (in words) (platelet aggregation)	other results
2-(Ginkgolide B-10-oxy) n-pentylamine Acetate [Embodiment 17]	34.20%	21.90%	significant activity	Average area ratio of hemicerebral infarction (%) [2, 4]: 25.31%
2-(Ginkgolide B-10-oxy) pyrrolidine Acetate [Embodiment 18]	–	26.45%	–	–
2-(Ginkgolide B-10-oxy)ammonium Acetate [Embodiment 11]	–	56.53%	–	–
2-(Ginkgolide B-10-oxy)arginine Acetate [Embodiment 13]	21.25%	15.66%	significant activity	anti-aggregation activity on platelet aggregation in SD rats (in words) [1]: particularly significant (P<0.001); Average area ratio of hemicerebral infarction (%) [2, 4]: 20.14%; activity for reducing the area ratio of hemicerebral infarction in SD rats (in words) [2, 5]: particularly significant (P<0.001)
2-(Ginkgolide B-10-oxy)diethylamine Acetate [Embodiment 16]	–	28.87%	–	–
2-(Ginkgolide B-10-oxy)histidine Acetate [Embodiment 14]	26.82%	19.74%	significant activity	anti-aggregation activity on platelet aggregation in SD rats (in words) [1]: particularly significant (P<0.001); Average area ratio of hemicerebral infarction (%) [2, 4]: 17.98%; activity for reducing the area ratio of hemicerebral infarction in SD rats (in words) [2, 5]: particularly significant (P<0.001)
2-(Ginkgolide B-10-oxy)lysine Acetate [Embodiment 12]	22.65%	12.23%	significant activity	anti-aggregation activity on platelet aggregation in SD rats (in words) [1]: particularly significant (P<0.001); Average area ratio of hemicerebral infarction (%) ([2]; rat, in vivo, 50 mg/kg): 18.83%; activity for reducing the area ratio of hemicerebral infarction in SD rats (in words) ([2]; rat, in vivo, 50 mg/kg): particularly significant (P<0.001); also recorded: significantly better than Ginkgolide B and embodiment 10
2-(Ginkgolide B-10-oxy)morpholine Acetate [Embodiment 19]	–	35.77%	–	–
2-(Ginkgolide B-10-oxy)triethylamine Acetate [Embodiment 15]	–	24.65%	–	–
2-(Ginkgolide B-10-oxyethoxy)N-methyl-D-glucosamine Acetate [Embodiment 21]	29.35%	18.64%	significant activity	Average area ratio of hemicerebral infarction (%) [2, 4]: 22.66%
2-(Ginkgolide B-10-oxyethoxy)sodium Acetate [Embodiment 20]	–	45.32%	–	–
COC(=O)CO[C@H]1C(=O)O[C@H]2O[C@]34C(=O)OC5C[C@@H](C(C)(C)C)C21[C@@]53[C@@H](O)[C@@H]1OC(=O)C(C)[C@@]14O (some centres unmarked) [Embodiment 1, 10-O-(methoxyformylmethyl) Ginkgolide B]	–	–	–	activity at 1 µM (platelet aggregation): 30%
COC(=O)/C=C/CO[C@H]1C(=O)O[C@H]2O[C@]34C(=O)OC5C[C@@H](C(C)(C)C)C21[C@@]53[C@@H](O)[C@@H]1OC(=O)C(C)[C@@]14O (some centres unmarked) [Embodiment 2, 10-O-(methoxyformylallyl) Ginkgolide B]	32.60%	–	significant activity	activity at 1 µM (platelet aggregation): 10.3%; Average area ratio of hemicerebral infarction (%) [2, 4]: 21.56%
CC1C(=O)O[C@H]2[C@H](O)[C@@]34C5C[C@@H](C(C)(C)C)C36[C@@H](OC(=O)[C@@H]6OCC(=O)OC(C)(C)C)O[C@@]4(C(=O)O5)[C@@]12O (some centres unmarked) [Embodiment 3, 10-O-(tert-butoxyformylmethyl) Ginkgolide B]	–	–	–	activity at 1 µM (platelet aggregation): 26.1%
COC(=O)COCCO[C@H]1C(=O)O[C@H]2O[C@]34C(=O)OC5C[C@@H](C(C)(C)C)C21[C@@]53[C@@H](O)[C@@H]1OC(=O)C(C)[C@@]14O (some centres unmarked) [Embodiment 4, 10-O-(methoxyformylmethoxyethyl) Ginkgolide B]	–	–	–	activity at 1 µM (platelet aggregation; [3]): 46.7%
COC(=O)COCCOCCO[C@H]1C(=O)O[C@H]2O[C@]34C(=O)OC5C[C@@H](C(C)(C)C)C21[C@@]53[C@@H](O)[C@@H]1OC(=O)C(C)[C@@]14O (some centres unmarked) [Embodiment 5, 10-O-(methoxyformylmethoxyethoxyethyl) Ginkgolide B]	–	–	–	activity at 1 µM (platelet aggregation): 39.3%
CC1C(=O)O[C@H]2[C@H](O)[C@@]34C5C[C@@H](C(C)(C)C)C36[C@@H](OC(=O)[C@@H]6OC/C=C/C(=O)O)O[C@@]4(C(=O)O5)[C@@]12O (some centres unmarked) [Embodiment 6, 4-(Ginkgolide B-10-oxy)-2-butenoic Acid]	–	–	–	activity at 1 µM (platelet aggregation; [3]): 45.7%
CC1C(=O)O[C@H]2[C@H](O)[C@@]34C5C[C@@H](C(C)(C)C)C36[C@@H](OC(=O)[C@@H]6OCC(=O)O)O[C@@]4(C(=O)O5)[C@@]12O (some centres unmarked) [Embodiment 7, 2-(Ginkgolide B-10-oxy)acetic Acid]	–	17.66%	significant activity	Average maximum platelet aggregation rate (%) ([1]; n=10, 50 mg/kg): 35.20%; Average area ratio of hemicerebral infarction (%) [2, 6]: 25.14%
CC1C(=O)O[C@H]2[C@H](O)[C@@]34C5C[C@@H](C(C)(C)C)C36[C@@H](OC(=O)[C@@H]6OCCOCC(=O)O)O[C@@]4(C(=O)O5)[C@@]12O (some centres unmarked) [Embodiment 8, 2-(Ginkgolide B-10-oxyethoxy)acetic Acid]	–	–	–	activity at 1 µM (platelet aggregation; [3]): 23.7%
CC1C(=O)O[C@H]2[C@H](O)[C@@]34C5C[C@@H](C(C)(C)C)C36[C@@H](OC(=O)[C@@H]6OCCOCCOCC(=O)O)O[C@@]4(C(=O)O5)[C@@]12O (some centres unmarked) [Embodiment 9, 2-(Ginkgolide B-10-oxyethoxyethoxy)acetic Acid]	–	–	–	activity at 1 µM (platelet aggregation; [3]): 35%
CC1C(=O)O[C@H]2[C@H](O)[C@@]34C5C[C@@H](C(C)(C)C)C36[C@@H](OC(=O)[C@@H]6OCC(=O)O)O[C@@]4(C(=O)O5)[C@@]12O (some centres unmarked) [Embodiment 10, 2-(Ginkgolide B-10-oxy)sodium Acetate]	–	39.34%	–	Average maximum platelet aggregation rate (%) ([1]; n=10, 50 mg/kg): 42.20%; Average area ratio of hemicerebral infarction (%) [2, 6]: 29.61%
CC1C(=O)OC2C(O)C34C5CC(C(C)(C)C)C36C(OC(=O)C6O)OC4(C(=O)O5)C12O (centres unmarked) [Ginkgolide B]	39.57%	63.42%	–	Average area ratio of hemicerebral infarction (%) [2, 4]: 26.12%
